Several values for one entry are separate records, joined by “and”; a condition that tells them apart may be missing. Equal entries are not always repeated. Activity calls are given as the source filed them. The rule behind the calls is not given here.
Test system: rodent lifetime carcinogenesis bioassay, tumor incidence TD50
Assay: chronic cancer bioassays in animals – CPDB, compiled studies (AID 1745844)
[1] = mouse, strain B6AKF1, females, oral dosing, site: any site (literature study), lesion: several types, types named in the paper, dosed 76 weeks, study length 76 weeks
[2] = mouse, strain B6AKF1, females, oral dosing, site: liver, lesion: hepatoma, dosed 76 weeks, study length 76 weeks
[3] = mouse, strain B6AKF1, females, oral dosing, site: lung, lesion: adenoma, dosed 76 weeks, study length 76 weeks
[4] = mouse, strain B6AKF1, males, oral dosing, site: any site (literature study), lesion: several types, types named in the paper, dosed 76 weeks, study length 76 weeks
[5] = mouse, strain B6AKF1, males, oral dosing, site: liver, lesion: hepatoma, dosed 76 weeks, study length 76 weeks
[6] = mouse, strain B6AKF1, males, oral dosing, site: lung, lesion: adenoma, dosed 76 weeks, study length 76 weeks
[7] = mouse, strain B6C3F1, females, oral dosing, site: any site (literature study), lesion: several types, types named in the paper, dosed 76 weeks, study length 76 weeks
[8] = mouse, strain B6C3F1, females, oral dosing, site: liver, lesion: hepatoma, dosed 76 weeks, study length 76 weeks
[9] = mouse, strain B6C3F1, males, oral dosing, site: any site (literature study), lesion: several types, types named in the paper, dosed 76 weeks, study length 76 weeks
[10] = mouse, strain B6C3F1, males, oral dosing, site: liver, lesion: hepatoma, dosed 76 weeks, study length 76 weeks
[11] = mouse, strain B6C3F1, males, oral dosing, site: lung, lesion: adenoma, dosed 76 weeks, study length 76 weeks

For CCCCN(CCCC)C(=S)[S-].CCCCN(CCCC)C(=S)[S-].[Ni+2], the TD50 [1] was 0.185 mg/kg/day (inactive), the carcinogen call [2] was “negative (inactive)” and the TD50 [3] was 0.0869 mg/kg/day (inactive). The carcinogen call [4] was “negative (inactive)”, the carcinogen call [5] was “negative (inactive)” and the TD50 [6] was 0.153 mg/kg/day (inactive). The TD50 [7] was 0.174 mg/kg/day (inactive), the carcinogen call [8] was “negative (inactive)” and the TD50 (mouse, strain B6C3F1, females, oral dosing, site: lung, lesion: adenoma, dosed 76 weeks, study length 76 weeks) was 0.174 mg/kg/day (inactive). The TD50 [9] was 0.0283 mg/kg/day (inactive), the TD50 [10] was 0.0509 mg/kg/day (inactive) and the TD50 [11] was 0.163 mg/kg/day (inactive).
With Nc1ccc(NC(=O)c2ccc(N)cc2)cc1 the carcinogen call (mouse, strain BALB/cLacDp, females, in feed, site: liver, lesion: several types, types named in the paper, dosed 60 weeks, study length 132 weeks) was “negative (inactive)”, the TD50 (mouse, strain BALB/cLacDp, females, in feed, site: lung, lesion: several types, types named in the paper, dosed 60 weeks, study length 132 weeks) was 360 mg/kg/day (inactive) and the carcinogen call (mouse, strain BALB/cLacDp, males, in feed, site: liver, lesion: several types, types named in the paper, dosed 60 weeks, study length 132 weeks) was “negative (inactive)”. The carcinogen call (mouse, strain BALB/cLacDp, males, in feed, site: lung, lesion: several types, types named in the paper, dosed 60 weeks, study length 132 weeks) was “negative (inactive)”.
O=S(=O)(Oc1ccc(Cl)cc1)c1ccc(Cl)cc1 was tested, and the carcinogen call [1] was “negative (inactive)”, the carcinogen call [2] was “negative (inactive)” and the carcinogen call [3] was “negative (inactive)”. The carcinogen call [4] was “negative (inactive)”, the carcinogen call [5] was “negative (inactive)” and the carcinogen call [6] was “negative (inactive)”. For the same compound, the TD50 [7] was 931 mg/kg/day (inactive), the TD50 [8] was 931 mg/kg/day (inactive) and the carcinogen call (mouse, strain B6C3F1, females, oral dosing, site: lung, lesion: several types, types named in the paper, dosed 76 weeks, study length 76 weeks) was “negative (inactive)”. For the same compound, the TD50 [9] was 84.5 mg/kg/day (inactive), the TD50 [10] was 422 mg/kg/day (inactive) and the TD50 [11] was 869 mg/kg/day (inactive).
Compound Nc1ccccc1N has a TD50 (mouse, strain CD-1 HaM/ICR, females, in feed, site: any site (literature study), lesion: several types, types named in the paper, dosed 77 weeks, study length 90 weeks) of 676 mg/kg/day, a TD50 (mouse, strain CD-1 HaM/ICR, females, in feed, site: liver, lesion: hepatoma, dosed 77 weeks, study length 90 weeks) of 611 mg/kg/day and a TD50 (mouse, strain CD-1 HaM/ICR, females, in feed, site: liver, lesion: several types, types named in the paper, dosed 77 weeks, study length 90 weeks) of 507 mg/kg/day. For the same compound, the TD50 (mouse, strain CD-1 HaM/ICR, females, in feed, site: lung, lesion: several types, types named in the paper, dosed 77 weeks, study length 90 weeks) was 2260 mg/kg/day (inactive), the TD50 (mouse, strain CD-1 HaM/ICR, males, in feed, site: any site (literature study), lesion: several types, types named in the paper, dosed 77 weeks, study length 86 weeks) was 1970 mg/kg/day and the TD50 (mouse, strain CD-1 HaM/ICR, males, in feed, site: liver, lesion: hepatoma, dosed 77 weeks, study length 86 weeks) was 921 mg/kg/day and 1110 mg/kg/day. For the same compound, the TD50 (mouse, strain CD-1 HaM/ICR, males, in feed, site: liver, lesion: several types, types named in the paper, dosed 77 weeks, study length 86 weeks) was 921 mg/kg/day, the TD50 (mouse, strain CD-1 HaM/ICR, males, in feed, site: lung, lesion: several types, types named in the paper, dosed 77 weeks, study length 86 weeks) was 3210 mg/kg/day (inactive) and the TD50 (rat, strain Charles River CD (Sprague-Dawley), males, in feed, site: liver, lesion: hepatoma, dosed 77 weeks, study length 107 weeks) was 248 mg/kg/day and 315 mg/kg/day. The TD50 (rat, strain Charles River CD (Sprague-Dawley), males, in feed, site: liver, lesion: several types, types named in the paper, dosed 77 weeks, study length 107 weeks) was 248 mg/kg/day.
Compound Nc1ccc2c(c1)C(=O)c1ccccc1C2=O has a TD50 (mouse, strain B6C3F1, females, in feed, site: all sites + liver, lesion: lymphoma + hepatocellular carcinoma, dosed 79 weeks, study length 94 weeks) of 1490 mg/kg/day, a TD50 (mouse, strain B6C3F1, females, in feed, site: all sites, lesion: lymphoma, dosed 79 weeks, study length 94 weeks) of 3160 mg/kg/day and a TD50 (mouse, strain B6C3F1, females, in feed, site: any site (literature study), lesion: several types, types named in the paper, dosed 79 weeks, study length 94 weeks) of 1620 mg/kg/day. It also gave a TD50 (mouse, strain B6C3F1, females, in feed, site: liver, lesion: hepatocellular adenoma + hepatocellular carcinoma + neoplastic nodule, dosed 79 weeks, study length 94 weeks) of 2820 mg/kg/day, a TD50 (mouse, strain B6C3F1, females, in feed, site: liver, lesion: hepatocellular carcinoma, dosed 79 weeks, study length 94 weeks) of 2820 mg/kg/day and a TD50 (mouse, strain B6C3F1, females, in feed, site: lung, lesion: alveolar/bronchiolar adenoma + alveolar/bronchiolar carcinoma, dosed 79 weeks, study length 94 weeks) of 33400 mg/kg/day. For the same compound, the TD50 (mouse, strain B6C3F1, males, in feed, site: any site (literature study), lesion: several types, types named in the paper, dosed 79 weeks, study length 93 weeks) was 952 mg/kg/day, the TD50 (mouse, strain B6C3F1, males, in feed, site: liver, lesion: hepatocellular adenoma + hepatocellular carcinoma + neoplastic nodule, dosed 79 weeks, study length 93 weeks) was 798 mg/kg/day and the TD50 (mouse, strain B6C3F1, males, in feed, site: liver, lesion: hepatocellular adenoma + hepatocellular carcinoma, dosed 79 weeks, study length 93 weeks) was 798 mg/kg/day. The TD50 (mouse, strain B6C3F1, males, in feed, site: liver, lesion: hepatocellular carcinoma, dosed 79 weeks, study length 93 weeks) was 755 mg/kg/day, the TD50 (mouse, strain B6C3F1, males, in feed, site: lung, lesion: alveolar/bronchiolar adenoma + alveolar/bronchiolar carcinoma, dosed 79 weeks, study length 93 weeks) was 19400 mg/kg/day and the TD50 (rat, strain Fischer 344, females, in feed, site: any site (literature study), lesion: several types, types named in the paper, dosed 78 weeks, study length 109 weeks) was 124 mg/kg/day (inactive). The TD50 (rat, strain Fischer 344, males, in feed, site: any site (literature study), lesion: several types, types named in the paper, dosed 78 weeks, study length 106 weeks) was 759 mg/kg/day, the TD50 (rat, strain Fischer 344, males, in feed, site: liver, lesion: hepatocellular adenoma + hepatocellular carcinoma + neoplastic nodule, dosed 78 weeks, study length 106 weeks) was 101 mg/kg/day and the TD50 (rat, strain Fischer 344, males, in feed, site: liver, lesion: hepatocellular carcinoma + neoplastic nodule, dosed 78 weeks, study length 106 weeks) was 101 mg/kg/day. It also gave a TD50 (rat, strain Fischer 344, males, in feed, site: liver, lesion: hepatocellular carcinoma, dosed 78 weeks, study length 106 weeks) of 268 mg/kg/day.
In the case of Cc1cccc2cccnc12, the carcinogen call (rat, strain Fischer 344, females, in feed, site: liver, lesion: hyperplastic nodule, dosed 104 weeks, study length 104 weeks) is reported as “negative (inactive)” and the carcinogen call (rat, strain Fischer 344, males, in feed, site: liver, lesion: hyperplastic nodule, dosed 104 weeks, study length 104 weeks) is reported as “negative (inactive)”.
CNC(=O)ON=CC(C)(C)SC was tested, and the carcinogen call (mouse, strain B6C3F1, females, in feed, site: any site (literature study), lesion: several types, types named in the paper, dosed 103 weeks, study length 103 weeks) was “negative (inactive)”, the TD50 (mouse, strain B6C3F1, females, in feed, site: liver, lesion: hepatocellular adenoma + hepatocellular carcinoma + neoplastic nodule, dosed 103 weeks, study length 103 weeks) was 52.7 mg/kg/day and the TD50 (mouse, strain B6C3F1, males, in feed, site: any site (literature study), lesion: several types, types named in the paper, dosed 103 weeks, study length 103 weeks) was 1.74 mg/kg/day (inactive). For the same compound, the TD50 (mouse, strain B6C3F1, males, in feed, site: liver, lesion: hepatocellular adenoma + hepatocellular carcinoma + neoplastic nodule, dosed 103 weeks, study length 103 weeks) was 2.83 mg/kg/day, the TD50 (mouse, strain B6C3F1, males, in feed, site: lung, lesion: alveolar/bronchiolar adenoma + alveolar/bronchiolar carcinoma, dosed 103 weeks, study length 103 weeks) was 14.8 mg/kg/day and the carcinogen call (rat, strain Fischer 344, females, in feed, site: any site (literature study), lesion: several types, types named in the paper, dosed 103 weeks, study length 105 weeks) was “negative (inactive)”. The TD50 (rat, strain Fischer 344, males, in feed, site: any site (literature study), lesion: several types, types named in the paper, dosed 103 weeks, study length 105 weeks) was 10.4 mg/kg/day (inactive) and the TD50 (rat, strain Fischer 344, males, in feed, site: liver, lesion: hepatocellular adenoma + hepatocellular carcinoma + neoplastic nodule, dosed 103 weeks, study length 105 weeks) was 1.33 mg/kg/day.
